BindingDB's records for doi:10.1111/j.1747-0285.2010.01010.x (University of Washington, 2010)

Biological target: Thymidylate synthase (Homo sapiens, UniProt P04818)
Assay: Tritium Release Assay
Conditions: pH 7.5; 4 °C

Sequence of Thymidylate synthase (P04818 whole entry): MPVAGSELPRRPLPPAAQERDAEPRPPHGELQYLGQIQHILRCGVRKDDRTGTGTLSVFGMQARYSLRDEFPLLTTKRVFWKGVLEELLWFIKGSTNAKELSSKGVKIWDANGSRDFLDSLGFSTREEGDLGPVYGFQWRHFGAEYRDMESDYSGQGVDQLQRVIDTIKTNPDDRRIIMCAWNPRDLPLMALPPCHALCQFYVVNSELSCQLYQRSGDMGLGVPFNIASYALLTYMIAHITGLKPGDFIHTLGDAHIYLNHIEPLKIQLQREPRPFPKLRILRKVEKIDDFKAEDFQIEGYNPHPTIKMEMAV

| Structure (SMILES) | IC50 | Kd |
| --- | --- | --- |
| CCN1C(=O)c2cccc3c(NC(=O)c4cccs4)ccc1c23 [MV1554] | 160 µM |  |
| Cc1c(C(=O)NCCc2cccs2)nnn1-c1ccccc1 [MV1555] | 30 µM | 5 µM |
| O=C(O)c1ccc(/N=C/c2ccc(-c3cccs3)s2)cc1 [MV1556] | 240 µM |  |
| CC(=NNC(=O)Cc1c(C)[nH]c2ccc(C)cc12)c1cccs1 [MV1561] | 160 µM |  |
| CCc1ccc(/C=N/NC(=O)c2c[nH]c3ccccc23)s1 [MV1565] | 70 µM | 1 µM |
| O=C(NCCc1c[nH]c2ccccc12)/C(=C\c1cccs1)NC(=O)c1cccs1 [MV1570] | 70 µM | 2 µM |
| CC(OC(=O)c1cc2occc2n1C)C(=O)NCc1cccs1 (stereo not given) [MV1574] | > 500 µM |  |
| CCOC(=O)c1cc2occc2n1CC(=O)N1CCc2ccccc21 [MV1576] | 140 µM |  |
| CCOC(=O)c1cc2oc(C)cc2n1CC#N [MV1578] | > 500 µM |  |
| Cc1onc(-c2ccccc2)c1C(=O)NCc1cccs1 [MV1581] | > 500 µM |  |
| O=C(NCc1cccs1)c1nc(-c2ccccc2)no1 [MV1586] | 115 µM |  |
| Cc1cc(C(=O)CSc2nnc(N)s2)c(C)n1Cc1ccco1 [MV1588] | 115 µM |  |
